Here are results for 5 molecules from the NIST ThermoML archive (doi:10.1016/j.fluid.2014.05.023).

Several values for one entry are separate records, joined by “and”; a condition that tells them apart may be missing. Equal entries are not always repeated. Numbers after ± are expanded uncertainties.

A short description of the series: activity coefficient (dimensionless); of the first substance listed, at infinite dilution; xn = mol fraction of the nth substance listed. Conditions: 101 kPa, Liquid, Chromatography, x1 = 0.

For `CCCCOC(C)=O` [butyl ethanoate] + O, the activity coefficient was 613 ± 42 (273.35 K); 799 ± 55 (283.15 K); 942 ± 65 (293.15 K); 1040 ± 72 (298.15 K); 1080 ± 75 (303.15 K); 1140 ± 79 (313.15 K). The activity coefficient worked out at 1160 ± 80 (323.15 K) and 1140 ± 78 (333.15 K).
For the molecule `CCOC(C)=O` [ethyl acetate] + O, the activity coefficient is 44.5 ± 3 (273.35 K); 54.9 ± 3.8 (283.15 K); 64.8 and 68 (293.15 K); 69.2 ± 4.7 (298.15 K); 73.6 ± 5 (303.15 K); 80.1 ± 5.5 (313.15 K).
With `CCCC(=O)OCC` [ethyl butanoate] + O, the activity coefficient is, setting by setting: (293.15 K) 993 ± 68; (303.15 K) 1090 ± 75; (313.15 K) 1150 ± 79; (323.15 K) 1180 ± 81; (333.15 K) 1180 ± 81; (341.15 K) 1110 ± 120. For the setting “351.15 K”, the activity coefficient was found to be 1030 ± 110.
`CCOC(=O)CC` [ethyl propanoate] + O: the activity coefficient is 252 ± 17 (293.15 K); 291 ± 20 (303.15 K); 312 ± 21 (313.15 K); 329 ± 23 (323.15 K); 343 ± 24 (333.15 K); 332 and 328 (341.15 K). For the same molecule, the activity coefficient reads like this: (351.15 K) 366 and 321; (361.25 K) 283 ± 57.
Take `CCCOC(C)=O` [propyl ethanoate] + O: the activity coefficient is, setting by setting: (273.35 K) 172 ± 12; (283.15 K) 217 ± 15; (293.15 K) 274 and 257; (298.15 K) 261 and 270; (303.15 K) 281 ± 19; (313.15 K) 302 ± 21. Further, the activity coefficient was 319 ± 22 (323.15 K) and 321 ± 22 (333.15 K).
